Measured values as given in patent publication EP0045157A1, “Macrolide antibiotics, their preparation and veterinary compositions containing them” (ELI LILLY AND COMPANY, priority 1980, dated 1982).

Tests used:
[1] = Electrometric titration (pKa); assay type: physicochemical; conditions: electrometric titration in 66% aqueous dimethylformamide; read-out: pKa value of titratable group
Source text: Electrometric titration of DOMM in 66% aqueous dimethylformamide indicates the presence of a titratable group with a pKa value of about 7.14.

Solubility = assay type: physicochemical; conditions: water and most polar organic solvents (acetone, methanol, ethanol, chloroform, dimethylformamide, dimethyl sulfoxide)
Source text: DOMM acid addition salts are more soluble in water than is DOMM base.

Compound: CCC1OC(=O)CC(O)C(C)C(OC2OC(C)C(OC3CC(C)(O)C(O)C(C)O3)C(N(C)C)C2O)C(CC=O)CC(C)C(=O)C=CC(C)=CC1COC1OC(C)C(O)C(O)C1O (centres unmarked) [DOMM, 2"'-O-demethylmacrocin]
- pKa [1]: ~7.14
- solubility (Solubility): soluble in water and in most polar organic solvents
